Measurements taken from the NIST ThermoML archive (doi:10.1016/j.jct.2010.03.011).
± gives the expanded uncertainty stated by the source.

Key:
[1] = 298.2 K; 101 kPa; Liquid; Vibrating tube method
[2] = relative permittivity at various frequencies (dimensionless); conditions: 298.2 K; 101.33 kPa; Liquid; Frequency=0.1 MHz
[3] = refractive index (Na D-line) (dimensionless); conditions: 298.2 K; 101.33 kPa; Liquid; Standard Abbe refractometry
[4] = refractive index (Na D-line) (dimensionless); xn = mol fraction of the nth substance listed; conditions: 298.2 K, 101 kPa, Liquid, Standard Abbe refractometry
[5] = relative permittivity at various frequencies (dimensionless); xn = mol fraction of the nth substance listed; conditions: 298.2 K, 101.33 kPa, Liquid, Frequency=0.1 MHz, Parallel plate capacitor
[6] = xn = mol fraction of the nth substance listed; conditions: 298.2 K, 101 kPa, Liquid, Vibrating tube method

CC(O)CCO (stereo unspecified) [1,3-butanediol]
Conditions	mass density [kg/m3]	refractive index	relative permittivity
[1]	1001.22 ± 0.87	–	–
[2]	–	–	28.692 ± 0.01
[3]	–	1.4383 ± 0.0005	–

CC(O)CCO (stereo unspecified) [1,3-butanediol] + C1COCCO1
Conditions	refractive index, [4]	relative permittivity, [5]
x1 = 0.029	1.4206 ± 0.0005	2.488 ± 0.024
x1 = 0.098	1.4217 ± 0.0005	3.231 ± 0.027
x1 = 0.2	1.4233 ± 0.0005	4.644 ± 0.033
x1 = 0.293	1.4251 ± 0.0005	6.316 ± 0.039
x1 = 0.4	1.4265 ± 0.0005	8.425 ± 0.043
x1 = 0.491	1.4282 ± 0.0005	10.465 ± 0.052
x1 = 0.6	1.4301 ± 0.0005	13.528 ± 0.063
x1 = 0.693	1.4319 ± 0.0005	16.725 ± 0.071
x1 = 0.8	1.4343 ± 0.0005	20.583 ± 0.074
x1 = 0.9	1.4362 ± 0.0005	24.335 ± 0.076

CC(O)CCO (stereo unspecified) [1,3-butanediol] + CCCCC(CC)CO
Conditions	mass density, [6] [kg/m3]	refractive index, [4]	relative permittivity, [5]
x1 = 0.1	839.88 ± 0.72	1.4295 ± 0.0005	8.625 ± 0.028
x1 = 0.25	855.62 ± 0.75	1.4301 ± 0.0005	10.605 ± 0.031
x1 = 0.401	875.88 ± 0.78	1.431 ± 0.001	13.065 ± 0.037
x1 = 0.501	891.81 ± 0.82	1.4318 ± 0.0005	15.056 ± 0.043
x1 = 0.6	909.96 ± 0.85	1.4329 ± 0.0005	17.255 ± 0.048
x1 = 0.649	919.85 ± 0.87	1.4334 ± 0.0005	18.524 ± 0.051
x1 = 0.75	939.91 ± 0.91	1.4346 ± 0.0005	21.039 ± 0.055
x1 = 0.9	974.72 ± 0.97	1.4367 ± 0.0005	25.228 ± 0.062
x1 = 1	1001.22 ± 0.87	1.4383 ± 0.0005	28.692 ± 0.01

OCCCCO [1,4-butanediol]
Conditions	mass density [kg/m3]	refractive index	relative permittivity
[1]	1013.45 ± 0.9	–	–
[2]	–	–	31.539 ± 0.01
[3]	–	1.4447 ± 0.0005	–

OCCCCO [1,4-butanediol] + C1COCCO1
Conditions	refractive index, [4]	relative permittivity, [5]
x1 = 0.029	1.4207 ± 0.0005	2.525 ± 0.026
x1 = 0.098	1.422 ± 0.001	3.353 ± 0.03
x1 = 0.2	1.4243 ± 0.0005	4.916 ± 0.035
x1 = 0.293	1.4263 ± 0.0005	6.656 ± 0.04
x1 = 0.4	1.4288 ± 0.0005	8.798 ± 0.047
x1 = 0.491	1.4311 ± 0.0005	11.193 ± 0.058
x1 = 0.6	1.434 ± 0.001	14.491 ± 0.067
x1 = 0.693	1.4363 ± 0.0005	17.889 ± 0.075
x1 = 0.8	1.4392 ± 0.0005	21.914 ± 0.084
x1 = 0.9	1.4418 ± 0.0005	26.541 ± 0.093

OCCCCO [1,4-butanediol] + CCCCC(CC)CO
x1 = 1
Conditions	mass density [kg/m3]	refractive index	relative permittivity
[4]	–	1.4447 ± 0.0005	–
[5]	–	–	31.539 ± 0.01
[6]	1013.45 ± 0.9	–	–

CC(O)C(C)O (stereo unspecified) [2,3-butanediol]
Conditions	mass density [kg/m3]	refractive index	relative permittivity
[1]	994.31 ± 0.86	–	–
[2]	–	–	21.282 ± 0.01
[3]	–	1.4348 ± 0.0005	–

CC(O)C(C)O (stereo unspecified) [2,3-butanediol] + C1COCCO1
Conditions	refractive index, [4]	relative permittivity, [5]
x1 = 0.03	1.4205 ± 0.0005	2.386 ± 0.016
x1 = 0.096	1.4212 ± 0.0005	2.798 ± 0.018
x1 = 0.19	1.4223 ± 0.0005	3.592 ± 0.023
x1 = 0.29	1.4235 ± 0.0005	4.778 ± 0.027
x1 = 0.38	1.4249 ± 0.0005	5.985 ± 0.033
x1 = 0.488	1.4264 ± 0.0005	7.881 ± 0.04
x1 = 0.6	1.4281 ± 0.0005	10.205 ± 0.045
x1 = 0.69	1.4294 ± 0.0005	12.277 ± 0.054
x1 = 0.82	1.4316 ± 0.0005	16.001 ± 0.059
x1 = 0.9	1.433 ± 0.001	18.397 ± 0.061

CC(O)C(C)O (stereo unspecified) [2,3-butanediol] + CCCCC(CC)CO
x1 = 1
Conditions	mass density [kg/m3]	refractive index	relative permittivity
[4]	–	1.4348 ± 0.0005	–
[5]	–	–	21.282 ± 0.01
[6]	994.31 ± 0.86	–	–

CCCCC(CC)CO (stereo unspecified) [2-ethyl-1-hexanol]
Conditions	mass density [kg/m3]	refractive index	relative permittivity
[1]	830.62 ± 0.68	–	–
[2]	–	–	7.611 ± 0.01
[3]	–	1.4293 ± 0.0005	–

CCCCC(CC)CO (stereo unspecified) [2-ethyl-1-hexanol] + CC(O)C(C)O
Conditions	mass density, [6] [kg/m3]	refractive index, [4]	relative permittivity, [5]
x2 = 0	830.62 ± 0.68	1.4293 ± 0.0005	7.611 ± 0.01
x2 = 0.1	837.79 ± 0.72	1.4294 ± 0.0005	8.197 ± 0.018
x2 = 0.25	854.38 ± 0.75	1.4297 ± 0.0005	9.478 ± 0.022
x2 = 0.401	874.23 ± 0.78	1.4301 ± 0.0005	11.075 ± 0.025
x2 = 0.499	890.64 ± 0.81	1.4308 ± 0.0005	12.36 ± 0.03
x2 = 0.55	897.94 ± 0.83	1.4311 ± 0.0005	13.125 ± 0.032
x2 = 0.65	916.49 ± 0.86	1.4318 ± 0.0005	14.659 ± 0.034
x2 = 0.75	934.5 ± 0.89	1.4324 ± 0.0005	16.407 ± 0.038
x2 = 0.898	966.52 ± 0.96	1.4337 ± 0.0005	19.166 ± 0.04

CCCCC(CC)CO (stereo unspecified) [2-ethyl-1-hexanol] + OCCCCO
Conditions	mass density, [6] [kg/m3]	refractive index, [4]	relative permittivity, [5]
x2 = 0.099	840.72 ± 0.73	1.4299 ± 0.0005	8.795 ± 0.031
x2 = 0.25	858.3 ± 0.76	1.4313 ± 0.0005	11.008 ± 0.034
x2 = 0.4	881.5 ± 0.8	1.4329 ± 0.0005	13.706 ± 0.04
x2 = 0.5	897.59 ± 0.83	1.4343 ± 0.0005	15.945 ± 0.048
x2 = 0.6	916.55 ± 0.86	1.4358 ± 0.0005	18.45 ± 0.05
x2 = 0.649	926.55 ± 0.89	1.4368 ± 0.0005	19.741 ± 0.059
x2 = 0.749	948.41 ± 0.93	1.439 ± 0.0005	22.751 ± 0.063
x2 = 0.9	984.92 ± 1	1.4424 ± 0.0005	27.546 ± 0.07
